Results reported in PubChem BioAssay (NCI).
Where “and” joins values, the source holds several entries; their conditions need not be identical. Identical values can stand only once.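 The compound was tested at five concentrations on cells cultured in 96-well plates, with a 48-hour exposure period. GI50: concentration for 50% inhibition of growth. At the TGI there is no net growth.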 *1 amine or outer side, *2 acyl side, *3 side chain or, on linkers, in order; H or OH if unused. Where a SMILES comes first, the peptide text is derived from it. Bridges are numbered along the chain shown (N, C = ends). [ ]: non-standard residue; d: D form. ξ: configuration not given here. X4 = CCC(C)C(N[*:1])C(O)CC(=O)O[C@H](C(=O)C(C)C(=O)[*:2])C(C)C; NMeY = CN[C@@H](Cc1ccc(O)cc1)C(=O)O; ξNMeL = CNC(CC(C)C)C(=O)O; ξT = CC(O)C(N)C(=O)O

How the values were obtained:
Test in all cases: NCI tumour cell line growth inhibition, 48 h
OVCAR-4 ovarian = system: OVCAR-4 ovarian
SW-620 colon = system: SW-620 colon
MOLT-4 leukemia = system: MOLT-4 leukemia
SN12C renal = system: SN12C renal
KM12 colon = system: KM12 colon
HOP-92 NSCLC = system: HOP-92 NSCLC
M14 melanoma = system: M14 melanoma
K-562 leukemia = system: K-562 leukemia
UACC-62 melanoma = system: UACC-62 melanoma
NCI-H522 lung = system: NCI-H522 lung

## Nc1nc2c(ncn2C2C=CC(CO)O2)c(=O)[nH]1 (centres undefined)
OVCAR-4 ovarian
  TGI: > 100 µM
SW-620 colon
  TGI: > 100 µM
MOLT-4 leukemia
  TGI: > 100 µM
SN12C renal
  TGI: > 100 µM
KM12 colon
  TGI: > 100 µM
HOP-92 NSCLC
  TGI: > 100 µM
M14 melanoma
  TGI: > 100 µM

## CSC1SCC2C(=O)N(C)C3(CC3C)C(=O)OCC(NC(=O)c3nc4ccccc4cc3O)C(=O)NC(C)C(=O)N(C)C1C(=O)N(C)C1(CC1C)C(=O)OCC(NC(=O)c1nc3ccccc3cc1O)C(=O)NC(C)C(=O)N2C (centres undefined)
K-562 leukemia
  TGI: < 0.0001 µM
OVCAR-4 ovarian
  TGI: 0.000325 µM
SW-620 colon
  TGI: > 100 µM
KM12 colon
  TGI: < 0.0001 µM
HOP-92 NSCLC
  TGI: < 0.0001 µM
M14 melanoma
  TGI: < 0.0001 µM
UACC-62 melanoma
  TGI: < 0.0001 µM

## CCN(CC)CCCNc1ccc2nnn3c4ccc(O)cc4c(=O)c1c23
NCI-H522 lung
  TGI: 24.3 µM
K-562 leukemia
  TGI: 53.3 µM
OVCAR-4 ovarian
  TGI: 19.3 µM
SW-620 colon
  TGI: 18.4 µM
MOLT-4 leukemia
  TGI: 18.5 µM
SN12C renal
  TGI: 20.7 µM
KM12 colon
  TGI: 20 µM
HOP-92 NSCLC
  TGI: 43.8 µM
M14 melanoma
  TGI: 23.6 µM
UACC-62 melanoma
  TGI: 30.9 µM

## CSC(=NC1=NC(C(F)(F)F)(C(F)(F)F)N=C(c2ccccc2)O1)SC
NCI-H522 lung
  TGI: 25 µM
K-562 leukemia
  TGI: > 100 µM
OVCAR-4 ovarian
  TGI: 59.1 µM
SW-620 colon
  TGI: > 100 µM
MOLT-4 leukemia
  TGI: 85.3 µM
SN12C renal
  TGI: 42.9 µM
KM12 colon
  TGI: 20.7 µM
HOP-92 NSCLC
  TGI: 49.2 µM
M14 melanoma
  TGI: 54.6 µM
UACC-62 melanoma
  TGI: 64.2 µM

## CCOC(=O)C(Cc1ccccc1)(Cc1ccc(O)cn1)NC(=O)c1ccccc1 (centres undefined)
NCI-H522 lung
  TGI: 53.8 µM
K-562 leukemia
  TGI: > 100 µM
OVCAR-4 ovarian
  TGI: 97.7 µM
SW-620 colon
  TGI: > 100 µM
MOLT-4 leukemia
  TGI: > 100 µM
KM12 colon
  TGI: 54.8 µM
HOP-92 NSCLC
  TGI: 59.1 µM
M14 melanoma
  TGI: 40.5 µM
UACC-62 melanoma
  TGI: 46 µM

## COc1cc2ccnc3c2c(c1O)N(C)C=C3
K-562 leukemia
  TGI: > 100 µM
OVCAR-4 ovarian
  TGI: 32.4 µM
SW-620 colon
  TGI: > 100 µM
MOLT-4 leukemia
  TGI: > 100 µM
SN12C renal
  TGI: > 61.2 µM
KM12 colon
  TGI: 40.2 µM
HOP-92 NSCLC
  TGI: > 100 µM
M14 melanoma
  TGI: 37 µM
UACC-62 melanoma
  TGI: 25.6 µM

## C/C=C/[C@H]1O[C@@](OC)([C@@H](C)[C@H](O)[C@H](C)[C@H]2OC(=O)/C(OC)=C/C(C)=C/[C@@H](C)[C@@H](O)[C@@H](C)[C@@H](O)[C@H](C)C/C(C)=C/C=C/[C@@H]2OC)CC(OC2CC(O)C(OC(N)=O)C(C)O2)[C@@H]1C (some centres undefined)
NCI-H522 lung
  TGI: 1.42 µM
OVCAR-4 ovarian
  TGI: 18.3 µM
SW-620 colon
  TGI: 4.8 µM
MOLT-4 leukemia
  TGI: < 0.01 µM
SN12C renal
  TGI: 9.3 µM
KM12 colon
  TGI: 12.7 µM
HOP-92 NSCLC
  TGI: 11 µM
M14 melanoma
  TGI: < 0.0124 µM

## N#CC1=CNc2sccc2S1(=O)=O
NCI-H522 lung
  TGI: > 100 µM
OVCAR-4 ovarian
  TGI: > 100 µM
SW-620 colon
  TGI: > 100 µM
MOLT-4 leukemia
  TGI: > 100 µM
SN12C renal
  TGI: > 100 µM
KM12 colon
  TGI: > 100 µM
HOP-92 NSCLC
  TGI: > 100 µM
M14 melanoma
  TGI: > 100 µM
UACC-62 melanoma
  TGI: > 100 µM

## CC(C)n1c(=O)n(-c2ccccc2)n(C(C)(C)C)c1=O
K-562 leukemia
  TGI: > 100 µM
OVCAR-4 ovarian
  TGI: > 100 µM
SW-620 colon
  TGI: > 100 µM
MOLT-4 leukemia
  TGI: > 100 µM
SN12C renal
  TGI: > 100 µM
KM12 colon
  TGI: > 100 µM
HOP-92 NSCLC
  TGI: > 100 µM
M14 melanoma
  TGI: > 100 µM
UACC-62 melanoma
  TGI: > 100 µM

## NC(CCCCNC(=O)OCc1ccccc1)C(=O)NC(CCCCNC(=O)OCc1ccccc1)C(=O)ON1C(=O)CCC1=O (centres undefined)
K-562 leukemia
  TGI: > 100 µM
SW-620 colon
  TGI: > 100 µM
MOLT-4 leukemia
  TGI: > 100 µM
SN12C renal
  TGI: > 100 µM
KM12 colon
  TGI: > 100 µM
HOP-92 NSCLC
  TGI: > 100 µM
M14 melanoma
  TGI: > 100 µM
UACC-62 melanoma
  TGI: > 100 µM

## O=C(N=Nc1ccccc1Br)NNc1ccccc1Br
NCI-H522 lung
  TGI: > 100 µM
K-562 leukemia
  TGI: > 100 µM
OVCAR-4 ovarian
  TGI: > 100 µM
SW-620 colon
  TGI: > 100 µM
MOLT-4 leukemia
  TGI: > 100 µM
SN12C renal
  TGI: > 100 µM
M14 melanoma
  TGI: > 100 µM
UACC-62 melanoma
  TGI: > 100 µM

## CSc1nncc(-c2cc3c(c(SC)n2)CCC3)n1
NCI-H522 lung
  TGI: > 100 µM
OVCAR-4 ovarian
  TGI: > 100 µM
SW-620 colon
  TGI: > 100 µM
SN12C renal
  TGI: > 100 µM
KM12 colon
  TGI: > 100 µM
M14 melanoma
  TGI: > 100 µM
UACC-62 melanoma
  TGI: > 100 µM

## COc1c/c(=C2/C=c3ccccc3=N2)[nH]/c1=C/c1[nH]c(C)cc1C
K-562 leukemia
  GI50: 0.152 µM
  TGI: 9.91 µM
OVCAR-4 ovarian
  GI50: 0.106 µM
  TGI: > 100 µM
MOLT-4 leukemia
  GI50: 0.0293 µM
  TGI: 2.95 µM

## CCC(C)C1NC(=O)C(NC(=O)C(CC(C)C)N(C)C(=O)[C@@H]2CCCN2)C(C)OC(=O)[C@H](Cc2ccc(OC)cc2)N(C)C(=O)[C@@H]2CCCN2C(=O)[C@H](CC(C)C)NC(=O)C(C)C(=O)[C@H](C(C)C)OC(=O)CC1O (some centres undefined) (H-P[ξNMeL][ξT][X4]LP[NMeY](Me); ester 3-C)
NCI-H522 lung
  TGI: 0.00653 µM
OVCAR-4 ovarian
  TGI: 0.00369 µM and 0.0185 µM
SW-620 colon
  TGI: 0.0802 µM and 0.0232 µM
MOLT-4 leukemia
  TGI: 0.00507 µM
HOP-92 NSCLC
  TGI: 0.0187 µM
M14 melanoma
  TGI: 0.00865 µM
UACC-62 melanoma
  TGI: 0.00147 µM

## COC(=O)C1(C(=O)OC)N=C(C)OC1C(C)C (centres undefined)
K-562 leukemia
  TGI: > 100 µM
OVCAR-4 ovarian
  TGI: > 100 µM
SW-620 colon
  TGI: > 100 µM
MOLT-4 leukemia
  TGI: > 100 µM
SN12C renal
  TGI: > 100 µM
KM12 colon
  TGI: > 100 µM
HOP-92 NSCLC
  TGI: > 100 µM
M14 melanoma
  TGI: > 100 µM

## CCCCCCCCCCCCCCCCNc1nc(=O)n(C2CC(O)C(CO)O2)cc1F (centres undefined)
NCI-H522 lung
  TGI: 20.7 µM
OVCAR-4 ovarian
  TGI: 40.4 µM
SW-620 colon
  TGI: 32.1 µM
MOLT-4 leukemia
  TGI: 37.7 µM
SN12C renal
  TGI: 26.9 µM
KM12 colon
  TGI: 34 µM
HOP-92 NSCLC
  TGI: 25.1 µM
M14 melanoma
  TGI: 27.2 µM
UACC-62 melanoma
  TGI: 22.8 µM

## COc1ccc(NC2Oc3cc4c(cc3C(c3cc(OC)c(O)c(OC)c3)C2C)OCO4)cc1 (centres undefined)
NCI-H522 lung
  TGI: 27.3 µM
K-562 leukemia
  TGI: 12.3 µM
OVCAR-4 ovarian
  TGI: > 100 µM
SW-620 colon
  TGI: > 100 µM
SN12C renal
  TGI: 11.7 µM
KM12 colon
  TGI: > 100 µM
HOP-92 NSCLC
  TGI: > 100 µM
M14 melanoma
  TGI: > 100 µM
UACC-62 melanoma
  TGI: 35.2 µM

## O=C(NNC(=S)Nc1ccccc1)c1csc(NC(=S)NC2CCCCC2)n1
NCI-H522 lung
  TGI: > 100 µM
SW-620 colon
  TGI: > 100 µM
MOLT-4 leukemia
  TGI: > 100 µM
SN12C renal
  TGI: > 100 µM
KM12 colon
  TGI: > 100 µM
HOP-92 NSCLC
  TGI: > 100 µM
M14 melanoma
  TGI: > 100 µM
UACC-62 melanoma
  TGI: > 100 µM

## CCOC(=O)c1cn(-c2ccc(Cl)cc2)c(=O)n2c1nc1ccccc12
K-562 leukemia
  TGI: > 100 µM
OVCAR-4 ovarian
  TGI: > 100 µM
SW-620 colon
  TGI: > 100 µM
MOLT-4 leukemia
  TGI: > 100 µM
SN12C renal
  TGI: > 100 µM
KM12 colon
  TGI: > 100 µM
HOP-92 NSCLC
  TGI: > 100 µM
M14 melanoma
  TGI: > 100 µM
UACC-62 melanoma
  TGI: > 100 µM

## O=C1NC(N/N=C\c2ccccc2)=N/C1=C/c1ccc(Cl)cc1
NCI-H522 lung
  TGI: 44.4 µM
K-562 leukemia
  TGI: > 100 µM
OVCAR-4 ovarian
  TGI: 31.4 µM
SW-620 colon
  TGI: > 100 µM
MOLT-4 leukemia
  TGI: 33.9 µM
SN12C renal
  TGI: 54.6 µM
KM12 colon
  TGI: 95.5 µM
M14 melanoma
  TGI: > 100 µM

## OC1OC(c2ccco2)C(F)(F)C(F)(F)C1(F)F (centres undefined)
K-562 leukemia
  TGI: > 100 µM
OVCAR-4 ovarian
  TGI: > 100 µM
SW-620 colon
  TGI: > 100 µM
SN12C renal
  TGI: > 100 µM
KM12 colon
  TGI: > 100 µM
HOP-92 NSCLC
  TGI: > 100 µM
M14 melanoma
  TGI: > 100 µM
UACC-62 melanoma
  TGI: > 100 µM

## N#CCc1nc(C#N)c(N)o1
NCI-H522 lung
  TGI: > 100 µM
OVCAR-4 ovarian
  TGI: > 100 µM
SW-620 colon
  TGI: > 100 µM
MOLT-4 leukemia
  TGI: > 100 µM
SN12C renal
  TGI: > 100 µM
KM12 colon
  TGI: > 100 µM
HOP-92 NSCLC
  TGI: > 100 µM
M14 melanoma
  TGI: > 100 µM
UACC-62 melanoma
  TGI: > 100 µM

## O=C(NCCNCCO)N/N=C/c1ccc(Cl)cc1
NCI-H522 lung
  TGI: > 100 µM
K-562 leukemia
  TGI: > 100 µM
SW-620 colon
  TGI: > 100 µM
MOLT-4 leukemia
  TGI: > 100 µM
SN12C renal
  TGI: > 100 µM
KM12 colon
  TGI: > 100 µM
M14 melanoma
  TGI: > 100 µM
UACC-62 melanoma
  TGI: > 100 µM

## CC[N+](C)(CC)CCN1C(=O)c2ccccc2S1(=O)=O
NCI-H522 lung
  TGI: > 100 µM
OVCAR-4 ovarian
  TGI: > 100 µM
SW-620 colon
  TGI: > 100 µM
MOLT-4 leukemia
  TGI: > 100 µM
SN12C renal
  TGI: > 100 µM
KM12 colon
  TGI: > 100 µM
HOP-92 NSCLC
  TGI: > 100 µM
M14 melanoma
  TGI: > 100 µM
UACC-62 melanoma
  TGI: > 100 µM
